Among the data in PubChem BioAssay (NCI) are TGI values, retold here.

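How tested: cells in 96-well plates exposed to compound for 48 hours at five concentrations. TGI is the concentration that stops growth completely.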 Some results are limits rather than exact numbers.

Holding throughout (assay): NCI tumour cell line growth inhibition, 48 h
Test [1] relates to A498 renal.
The test system of test [2] is A549 NSCLC.
Test [3] concerns DU-145 prostate.
The subject of test [4] is EKVX NSCLC.
Test [5] relates to HCC-2998 colon.
The test system of test [6] is HL-60(TB) leukemia.
Test [7] concerns HT29 colon.
The subject of test [8] is K-562 leukemia.
Test [9] concerns M14 melanoma.
Test [10] relates to MCF7 breast.
Test [11] deals with MDA-MB-231 breast.
Test [12] has as its system MDA-MB-435.
In test [13] the test system is MOLT-4 leukemia.
Test [14] concerns NCI-H23 lung.
Test [15] has as its system NCI/ADR-RES ovarian.
The test system of test [16] is SF-295 CNS.
Test [17] concerns SK-MEL-2 melanoma.
Test [18] has as its system SK-MEL-28 melanoma.
Test [19] has as its system SNB-19 CNS.
In test [20] the test system is TK-10 renal.

With `Cc1cc(-c2nc3cc(F)ccc3s2)ccc1NC(=O)C(C)N` (configuration not stated), the TGI amounted to 7.41 µM in test [1]; 7.72 µM in test [2]; 8.17 µM in [3]; 7.03 µM in [4]; 3.57 µM in test [5]; 1.34 µM in [6]. The TGI in [7] was determined as 8.04 µM; in test [8] it was 14.5 µM; in test [9], 9.74 µM; in test [10], 2.7 µM; in test [11] it was 7.7 µM; in [12] it was 10.5 µM. For the same compound, the TGI in test [13] came out at 8.42 µM; in test [14], 6.24 µM; in test [15], 10.2 µM; in test [16], 7.94 µM; in test [17], 7.87 µM; in [18], 11 µM. The TGI in [19] worked out at 9.63 µM; in test [20] it was 2.93 µM.
With `NCCc1ccc2c(c1)C(=O)c1c(O)ccc(O)c1C2=O`, the TGI in [1] was more than 100 µM; in test [2] it was more than 45.4 µM; in test [3] it was more than 100 µM; in [4], 6.73 µM; in [5], more than 100 µM; in test [6] it was 5.34 µM. Further, the TGI was more than 64.2 µM in test [8]; more than 100 µM in [9]; more than 100 µM in test [10]; more than 27.8 µM in [11]; more than 100 µM in [12]; more than 100 µM in [13]. Besides, the TGI in test [14] was more than 60.8 µM; in [15], more than 82.9 µM; in test [16] it was more than 74.9 µM; in test [17], more than 100 µM; in test [19] it was 29.6 µM; in test [20], more than 100 µM.
As for `Nc1cnc2c(c1)c(=O)nc1n2CCS1`, the TGI in test [1], in [2], in [3], in [4], in [5] and in test [6] was more than 100 µM in each case. Also, the TGI in test [7], in [8], in [10], in [11], in test [12] and in test [13] was more than 100 µM in each case. The TGI in test [14], in test [15], in test [16], in [17], in test [18] and in test [19] was more than 100 µM each time. In [20], this compound displayed a TGI of more than 100 µM.
In the case of `CCCCCCCCCC(=O)CC(=O)c1c(O)cc(O)cc1O`, the TGI in test [1] is 71.3 µM; in test [2] it was more than 75 µM; in test [3], 57.9 µM; in test [4], more than 75 µM; in [5], 31.4 µM; in test [6], 42.8 µM. Also, the TGI in [7] is 38.8 µM; in [8] it was 36.3 µM; in test [9], 39 µM; in test [10], more than 75 µM; in test [11] it was more than 75 µM; in test [12] it was 39.1 µM. Further, the TGI in test [13] came out at 32.1 µM; in test [14], 35.9 µM; in test [15], 38.6 µM; in [16], 68.2 µM; in test [17] it was 40.9 µM; in [18] it was 72.8 µM. Further, the TGI in [19] was 68.1 µM; in test [20] it was more than 75 µM.
In the case of `COc1ccc(C2C(Cl)C(=O)N2NC(=O)c2ccc(N)cc2)cc1OC` (configuration not stated), the TGI in test [1] is 31.5 µM; in test [2], 34.1 µM; in test [3], 32.1 µM; in test [4], 35.2 µM; in test [5] it was 19.9 µM; in test [6], 4.54 µM. Besides, the TGI amounted to 6.28 µM in test [7]; 16.5 µM in test [8]; 22.6 µM in [9]; 24.7 µM in test [10]; 39.7 µM in test [11]; 19.1 µM in [12]. Also, the TGI in test [13] came to 5.16 µM; in test [14], 18.8 µM; in test [15], 5.16 µM; in [16] it was 18.4 µM; in test [17], 26.6 µM; in test [18], 17.6 µM. Further, the TGI in test [19] stood at 30.5 µM; in test [20], 30.7 µM.
Regarding `Cc1cc2c(=O)[nH]nc(N)c2c(N)n1`, the TGI in test [1], in test [2], in [3], in test [4], in [5] and in [6] was more than 100 µM throughout. For the same compound, the TGI in test [7], in test [8], in test [9], in test [10], in [11] and in test [12] was more than 100 µM each time. Besides, the TGI in [13], in [14], in [15], in test [16], in test [17] and in test [18] was more than 100 µM in each case. Also, the TGI in test [19] and in test [20] was more than 100 µM throughout.
Take `O=C1N[C@@H]2c3c(Br)sc(Br)c3C(=O)[C@@H]2N1`: the TGI in test [1] was determined as 34 µM; in test [2], 30 µM; in [3] it was 17.2 µM; in [4], 17.1 µM; in test [5] it was 3.42 µM; in test [6], 5.36 µM. For the same compound, the TGI was 9.01 µM in [7]; more than 100 µM in [8]; 16.5 µM in [9]; 10.1 µM in [10]; 10.9 µM in test [11]; 4.83 µM in test [12]. Also, the TGI in test [13] was 9.08 µM; in [14], 17 µM; in [15], more than 70.6 µM; in [16], 29.5 µM; in test [17], 13.7 µM; in test [18], 12.3 µM. In addition, the TGI came to 26.2 µM in test [19] and 6.09 µM in test [20].
